In patent US8912213B2, “Synthesis and use of dual tyrosyl-DNA phosphodiesterase I (TDP1)- topoisomerase I (TOP1) inhibitors” (Purdue Research Foundation, priority 2012, dated 2014):
Like-named read-outs stand apart in the source and are kept apart here.

What was measured:
HOP-62 = assay: NCI screen cytotoxicity, lung HOP-62; assay type: cell-based; conditions: Homo sapiens, 50% growth inhibition
MDA-MB-435 = assay: NCI screen cytotoxicity, breast MDA-MB-435; assay type: cell-based; conditions: Homo sapiens, MDA-MB-435, read-out: Cytotoxicity (GI50 in μM) breast MDA-MB-435; 50% growth inhibition
SN12C = assay: NCI screen cytotoxicity, renal SN12C; assay type: cell-based; conditions: Homo sapiens, 50% growth inhibition
UACC-62 = assay: NCI screen cytotoxicity, melanoma UACC-62; assay type: cell-based; conditions: Homo sapiens, 50% growth inhibition
DU-145 = assay: NCI screen cytotoxicity, prostate DU-145; assay type: cell-based; conditions: Homo sapiens, DU-145, read-out: Cytotoxicity (GI50 in μM) prostate DU-145; 50% growth inhibition
SF-539 = assay: NCI screen cytotoxicity, CNS SF-539; assay type: cell-based; conditions: Homo sapiens, read-out: Cytotoxicity (GI50 in μM) CNS SF-539; 50% growth inhibition
Tdp1 [1] = biological target: T1, Tdp1 (Homo sapiens (Human), UniProt Q9NUW8); assay: Gel-based assay measuring the inhibition of recombinant Tdp1; assay type: biochemical;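 further: 5′-32P-labeled single-stranded DNA with 3′-phosphotyrosine incubated with 5 pM enzyme for 15 min at room temperature, inhibition seen as loss of 3′-phosphate product band by densitometry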
Method: Tdp1 inhibitory activity was measured by the drug's ability to inhibit the hydrolysis of the phosphodiester linkage between tyrosine and the 3′-end of the DNA substrate, and to prevent the generation of an oligonucleotide with a free 3′-phosphate (N14P). Therefore, the disappearance of the gel band for N14P indicated Tdp1 inhibition.
Gel-Based Assay Measuring the Inhibition of Recombinant Tdp1. A 5′-[^32P]-labeled single-stranded DNA oligonucleotide containing a 3′-phosphotyrosine (N14Y) was generated as described by Dexheimer et al. The DNA substrate was then incubated with 5 pM recombinant Tdp1 in the absence or presence of inhibitor for 15 min at room temperature in a buffer containing 50 mM Tris HCl, pH 7.5, 80 mM KCl, 2 mM EDTA, 1 mM DTT, 40 μg/ml BSA and 0.01% Tween-20. […] Gel images were scanned using a Typhoon 8600 (GE Healthcare) and densitometric analyses were performed using the ImageQuant software (GE Healthcare).

OVCAR-3 = assay: NCI screen cytotoxicity, ovarian OVCAR-3; conditions: Homo sapiens, OVCAR-3, read-out: Cytotoxicity (GI50 in μM) ovarian OVCAR-3
[2] = system: all human cancer cell lines successfully tested; assay: NCI screen, mean graph midpoint (MGM) for growth inhibition; conditions: Homo sapiens
HCT-116 = assay: NCI screen cytotoxicity, colon HCT-116; assay type: cell-based; conditions: Homo sapiens, 50% growth inhibition
Human recombinant Top1 = Human recombinant Top1 (Homo sapiens (Human), UniProt P11387); assay: Topoisomerase I-mediated DNA cleavage reactions; assay type: biochemical; conditions: for Top1 (compound-induced DNA cleavage, semiquantitative scale): series (B), relative to 1 μM camptothecin (90) or MJ-III-65 (91); for Top1 inhibition (semiquantitative scale): series (A), relative to 1 μM camptothecin;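 on all read-outs here: 3′-end radiolabeled DNA substrate (about 2 nM) incubated with recombinant Top1 and compound for 20 min at 25 °C, cleavage products resolved by denaturing PAGE and phosphoimaging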
Method: Additionally, all indenoisoquinoline sulfonates and sulfonamides were tested for Top1 cleavage complex poisoning in a Top1-mediated DNA cleavage assay.
Topoisomerase I-Mediated DNA Cleavage Reactions. Human recombinant Top1 was purified from baculovirus as previously described. DNA cleavage reactions were prepared as previously reported with the exception of the DNA substrate. […] Unincorporated [^32P]dGTP was removed using mini Quick Spin DNA columns (Roche, Indianapolis, Ind.), and the eluate containing the 3′-end-labeled DNA substrate was collected. Approximately 2 nM radiolabeled DNA substrate was incubated with recombinant Top1 in 20 μL of reaction buffer [10 mM Tris-HCl (pH 7.5), 50 mM KCl, 5 mM MgCl2, 0.1 mM EDTA, and 15 μg/mL BSA] at 25° C. for 20 min in the presence of various concentrations of compounds. The reactions were terminated by adding SDS (0.5% final concentration) followed by the addition of two volumes of loading dye (80% formamide, 10 mM sodium hydroxide, 1 mM sodium EDTA, 0.1% xylene cyanol, and 0.1% bromphenol blue). Aliquots of each reaction mixture were subjected to 20% denaturing PAGE. Gels were dried and visualized by using a phosphoimager and ImageQuant software (Molecular Dynamics).
Topoisomerase I-Mediated DNA Cleavage Reactions. Top1 reactions were performed as recently described. […] The reactions were terminated by adding SDS (0.5% final concentration) followed by the addition of two volumes of loading dye (80% formamide, 10 mM sodium hydroxide, 1 mM sodium EDTA, 0.1% xylene cyanol, and 0.1% bromphenol blue). Reactions were subjected to 20% denaturing PAGE. Gels were dried and visualized by using a Typhoon 8600 and ImageQuant software (Molecular Dynamics).

Tdp1 [3] = biological target: T1, Tdp1; assay: Surface plasmon resonance analysis; assay type: binding; conditions: immobilized Tdp1
Method: Surface Plasmon Resonance Analysis. Binding experiments were performed on a Biacore T100 instrument (GE, Piscataway N.J.). Tdp1 was amine coupled to a CM5 sensor chip (GE Healthcare, Piscataway N.J.). […] (EDC), N-hydroxysuccinimide (NHS) and ethanolamine were purchased from GE Heathcare, (Piscataway N.J.). Neutravidin was obtained from Pierce. In order to protect the amine groups within the active site from modification, Tdp1 was bound with a 14-base oligonucleotide before coupling to the surface. […] The CM5 chip surface was activated for 7 min. with 0.1 M NHS and 0.4 M EDC at a flow rate of 20 μL/min and Tdp1-oligonucleotide mixture was injected until approximately 4000 RU's was attached. Activated amine groups were quenched with an injection of 1 M solution of ethanolamine pH 8.0 for 7 min. Any bound oligonucleotide was removed by washing the surface with 1 M NaCl. A reference surface was prepared in the same manner without coupling of Tdp1. […] Following compound injections, the surface was regenerated with a 30 second injection 1 M NaCl, a 30 second injection of 50% DMSO (v/v) and a 30 second running buffer injection. Each cycle of compound injection was followed by buffer cycle for referencing purposes. A DMSO calibration curve was included to correct for refractive index mismatches between the running buffer and compound dilution series.
Surface Plasmon Resonance Analysis. […]

[4] = biological target: endogenous human Tdp1 in whole cell extract (Homo sapiens (Human), UniProt Q9NUW8); assay: Gel-based assay measuring the inhibition of endogenous human Tdp1 in whole cell extract; assay type: biochemical; conditions: human Tdp1 in whole cell extract (WCE)
Method: Gel-Based Assay Measuring the Inhibition of Endogenous Human Tdp1 in Whole Cell Extract. 1×10^7 DT40 knockout cells for chicken Tdp1 and complemented with human Tdp1 were collected, washed and centrifuged. Cell pellet was then resuspended with 100 μL of CellLytic M Cell Lysis Reagent (SIGMA-Aldrich C2978). After 15 min, the lysate was centrifuged at a 12,000 g for 10 min and the supernatant was transferred to a new tube. Protein concentration was determined using a nanodrop spectrophotometer (Invitrogen) and the whole cell extract was stored at −80° C. […] Reactions were then treated similarly to the recombinant enzyme containing samples (see section above).
All compounds were first tested in gel based assays for Tdp1 inhibition using recombinant (rec.) human Tdp1 and only the active compounds were tested for human Tdp1 inhibition in whole cell extract (WCE). […] was included in all experiments as positive control.

Tdp1 [5] = biological target: T1, Tdp1; conditions: known inhibitor; cited from earlier work

T1 sequence (Q9NUW8 whole entry): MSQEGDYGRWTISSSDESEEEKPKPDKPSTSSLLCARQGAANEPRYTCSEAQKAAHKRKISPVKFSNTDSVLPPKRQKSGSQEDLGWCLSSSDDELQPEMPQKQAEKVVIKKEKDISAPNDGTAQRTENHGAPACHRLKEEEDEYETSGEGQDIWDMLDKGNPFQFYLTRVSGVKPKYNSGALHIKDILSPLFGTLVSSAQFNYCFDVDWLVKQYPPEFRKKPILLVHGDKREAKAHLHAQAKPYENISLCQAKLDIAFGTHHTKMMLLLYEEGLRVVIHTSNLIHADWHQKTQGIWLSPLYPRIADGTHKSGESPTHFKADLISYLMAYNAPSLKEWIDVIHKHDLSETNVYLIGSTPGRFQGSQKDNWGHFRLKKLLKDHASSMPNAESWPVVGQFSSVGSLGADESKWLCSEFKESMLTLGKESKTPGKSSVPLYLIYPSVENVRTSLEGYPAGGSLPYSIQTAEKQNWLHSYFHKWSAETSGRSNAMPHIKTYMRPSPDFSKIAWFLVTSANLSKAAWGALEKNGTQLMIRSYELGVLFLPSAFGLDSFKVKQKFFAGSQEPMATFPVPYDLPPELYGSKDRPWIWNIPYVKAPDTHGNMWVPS
Sequence of Human recombinant Top1 (P11387 whole entry): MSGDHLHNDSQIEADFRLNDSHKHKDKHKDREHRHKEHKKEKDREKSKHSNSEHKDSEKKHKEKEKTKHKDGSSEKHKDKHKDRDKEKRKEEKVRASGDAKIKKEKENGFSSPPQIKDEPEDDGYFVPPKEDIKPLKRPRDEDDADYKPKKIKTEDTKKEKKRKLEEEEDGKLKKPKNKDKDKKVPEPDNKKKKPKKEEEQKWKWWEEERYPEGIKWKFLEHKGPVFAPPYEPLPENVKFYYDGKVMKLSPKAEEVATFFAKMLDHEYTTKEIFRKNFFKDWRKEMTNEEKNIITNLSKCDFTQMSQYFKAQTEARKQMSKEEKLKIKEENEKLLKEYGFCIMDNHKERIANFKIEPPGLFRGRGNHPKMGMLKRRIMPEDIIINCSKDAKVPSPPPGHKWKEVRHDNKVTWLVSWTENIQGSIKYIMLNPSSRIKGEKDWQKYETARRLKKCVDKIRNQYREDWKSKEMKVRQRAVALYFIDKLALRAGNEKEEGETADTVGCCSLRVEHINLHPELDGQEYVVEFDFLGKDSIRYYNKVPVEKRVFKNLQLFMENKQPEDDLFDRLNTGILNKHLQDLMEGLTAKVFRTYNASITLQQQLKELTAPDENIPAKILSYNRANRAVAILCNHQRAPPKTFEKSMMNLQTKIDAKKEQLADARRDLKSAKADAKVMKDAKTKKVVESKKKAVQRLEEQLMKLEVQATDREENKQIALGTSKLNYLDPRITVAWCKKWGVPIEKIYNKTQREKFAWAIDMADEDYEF
Sequence of endogenous human Tdp1 in whole cell extract (Q9NUW8 whole entry): as the sequence (Q9NUW8 whole entry) above

| SMILES | GI50 (HOP-62) | GI50 (MDA-MB-435) | GI50 (SN12C) | GI50 (UACC-62) | GI50 (DU-145) | GI50 (SF-539) | Tdp1 inhibitory activity (in words) (Tdp1 [1]) | IC50 (Tdp1 [1]; read-out: Tdp1 (μM) IC50) | GI50 (OVCAR-3) | GI50 ([2]; read-out: MGM (μM)) | GI50 (HCT-116) | Top1 (compound-induced DNA cleavage, semiquantitative scale) (Human recombinant Top1) | IC50 (Tdp1 [1]; series (B), determined by quadruplicate, read-out: Tdp1 (μM) IC50) | Top1 inhibition (semiquantitative scale) (Human recombinant Top1) | binding to Tdp1 by surface plasmon resonance (Tdp1 [3]) | IC50 [4] | IC50 (Tdp1 [1]) | GI50 ([2]; read-out: MGM GI50) | Tdp1 inhibition (in words) (Tdp1 [5]) |
| --- | --- | --- | --- | --- | --- | --- | --- | --- | --- | --- | --- | --- | --- | --- | --- | --- | --- | --- | --- |
| CCOC(=O)CNc1ccc2c3c(n(CCCN)c(=O)c2c1)-c1ccccc1C3=O.Cl [Compound 40 of (B), Ethyl 2-[(6-(3-Aminopropyl)-5,11-dioxo-6,11-dihydro-5H-indeno[1,2-c]isoquinolin-3-yl)amino]acetate Hydrochloride] | 0.93 µM | 3.05 µM | 1.75 µM | 2.25 µM | 1.68 µM | 8.91 µM | active | 11 ± 5 µM | 3.12 µM | 1.69 µM | 0.44 µM |  |  |  |  |  |  |  |  |
| Cl.NCCCn1c2c(c3ccc(NCC(=O)O)cc3c1=O)C(=O)c1ccccc1-2 [Compound 43 of (B), 2-((6-(3-Aminopropyl)-5,11-dioxo-6,11-dihydro-5H-indeno[1,2-c]isoquinolin-3-yl)amino)acetic Acid Hydrochloride] | 0.65 µM | 1.14 µM | 0.49 µM | 0.72 µM | 1.51 µM | 1.79 µM |  |  | 1.6 µM | 0.87 ± 0.014 µM | 0.33 µM | 0 | 5 ± 1.4 µM |  |  |  |  |  |  |
| COc1ccc2c(c1)-c1c(c3ccc([N+](=O)[O-])cc3c(=O)n1CCCN)C2=O.Cl [Compound 51 of (B), 6-(3-Aminopropyl)-5,6-dihydro-8-methoxy-3-nitro-5,11-dioxo-11H-indeno[1,2-c]isoquinoline Hydrochloride] |  | 0.58 µM | 0.15 µM |  | 0.18 µM | 0.61 µM |  | 15 ± 3 µM | 0.54 µM | 0.17 ± 0.017 µM | 0.06 µM | ++ |  |  |  |  |  |  |  |
| NCCCn1c2c(c3ccc(N)cc3c1=O)C(=O)c1ccccc1-2 [Compound 62 of (B)] | 0.27 µM | 0.23 µM | 0.23 µM | 0.3 µM | 0.12 µM | 0.34 µM |  |  | 0.13 µM | 0.16 µM | 0.18 µM |  |  |  |  |  |  |  |  |
| Cl.NCCCn1c2c(c3ccccc3c1=O)C(=O)c1ccccc1-2 [Compound 70 of (A)] |  |  |  |  |  |  |  |  |  |  |  |  |  | +++ (between 75% and 95% activity) | direct binding |  |  |  |  |
| O=C1c2ccccc2-c2c1c1ccccc1c(=O)n2CCCNCCCNCCCn1c2c(c3ccccc3c1=O)C(=O)c1ccccc1-2 [Compound 145 of (A), Bis-1,3-{(5,6-dihydro-5,11-diketo-11 H-indeno[1,2-c]isoquinoline)-6-propyl-amino}propane Bis(trifluoroacetate)] |  |  |  |  |  |  |  |  |  |  |  |  |  | ++++ |  | 1.9 µM | 1.5 µM | 0.394 µM |  |
| [O]=[V]([O-])([O-])[O-] [vanadate] |  |  |  |  |  |  |  |  |  |  |  |  |  |  |  |  |  |  | inhibition at millimolar concentrations |
